In data set [1] the test system is NMDA receptor. The following applies: noncompetitive NMDA channel blocker; cited from earlier work.
The nature of data set [2]: Harmaline-induced tremor in rats (tremor monitoring cage, 8-12 Hz vs 0-15 Hz motion). In kind it is in vivo, Sprague-Dawley rats. The procedure:
Six female Sprague-Dawley rats were treated with i.p. saline and placed in a tremor monitoring cage for 30 minutes of baseline recording. They then received 10 mg/kg harmaline i.p. to induce tremor. Recording of the harmaline-induced tremor began 15 minutes after the harmaline injection and continued for up to 2½ hours.
A transducer connected to the cage floor recorded motion, which was processed by Fourier transform and spectral analysis. Motion at 8-12 Hz (the range in which the tremor occurs) was compared to the full spectrum of motion recorded (0-15 Hz).
To analyze the reduction of tremor caused by treatment agents, a Convuls-1 pressure sensitive transducer system is used. Convuls-1 is designed to objectively quantify convulsive or tremorous activity in small laboratory animals. An unrestrained animal is placed within a chamber that resides upon a sensing platform. […] The static force exerted by the weight of the platform and animal is not recorded. […] Output power is recorded digitally and analyzed for change of frequency and power using the Dataware A/D converted and software.
The data is analyzed in one minute bins. For each bin, the total power of 0-15 Hz and the total power at 8-12 Hz is calculated. The data is then converted into Excel and the ratio of 8-12 Hz/0-15 Hz power is calculated. […]

The conditions of data set [3]: delivered intraperitoneally; severity dose dependent; cited from earlier work.
The conditions of data set [4]: general clinical practice, first line therapy; cited from earlier work.
The conditions of data set [5]: cats, cortical freezing; cited from earlier work.
Data set [6] has as its system rat hippocampal slices. The following applies: 10-30 μg/mL; cited from earlier work.
For data set [7] the following is noted: 50-200 mg/day in addition to anti-Parkinson Disease drug; cited from earlier work.
The test system of data set [8] is voltage-gated sodium channels. The note with it: in vitro; cited from earlier work.
For data set [9] the following is noted: cats, electrical stimulation of the visual cortex; cited from earlier work.
The conditions of data set [10]: rats; cited from earlier work.
For data set [11], the system named is dopaminergic and serotonergic neurotransmission. The following applies: in vivo microdialysis; cited from earlier work.
The test system of data set [12] is cultured mouse spinal cord neurons. The note with it: 10-30 μg/mL; cited from earlier work.
The conditions of data set [13]: patients; cited from earlier work.
Data set [14] deals with T-type Ca2+ currents. The following applies: in vitro; cited from earlier work.
Data set [15] is described as follows: Zonisamide treatment of tremor patients at an outpatient neurology clinic. In kind it is in vivo, human. The procedure: Zonisamide was used in treatment of patients at an outpatient neurology clinic, which provided the following results. […] For intractable essential tremor, 10 patients (age range: 46 to 82) were identified who were either intolerant to, or failed on, primidone or propranolol therapy. The dosage of zonisamide to these patients was 100 mg to a maximum of 200 mg once daily. The study dose was continued for at least 12 weeks unless discontinued earlier due to side effects.

The conditions of data set [16]: rats, cortical tungstic acid gel; cited from earlier work.
For data set [17] the following is noted: kindled rat; cited from earlier work.
For data set [18] the following is noted: one patient; treatment with zonisamide, clonazepam and valpolate; cited from earlier work.
For data set [19], the system named is GABA/benzodiazepine receptor ionophore complex. The following applies: in vitro; does not produce changes in chloride flux; cited from earlier work.
[20] abbreviates: patients at outpatient neurology clinic.

Where two headings read alike, the source gives them in different places.

In the case of `C[C@]12N[C@H](Cc3ccccc31)c1ccccc12` [MK-801], the “tremorogenic actions of harmaline” value in data set [1] is given as “could block the tremorogenic actions of harmaline”.

For `COc1ccc2c3c([nH]c2c1)C(C)=NCC3` [harmaline], the “stability of tremor-inducing effect” value in data set [2] (10 mg/kg harmaline i.p., female Sprague-Dawley rats) is “stable for over two hours”. Also, the “ratio of 8-12 Hz/0-15 Hz power” value in data set [2] (harmaline-treated rats (control rats 15-30%)) is 60-80%. The “effective dose range for tremor induction” value in data set [3] is 10 to 50 mg/kg.

With `CC(C)NCC(O)COc1cccc2ccccc12` (stereo not drawn) [propranolol], the “efficacy in ET” value in data set [4] is reported as “proven efficacy in ET”.

On to `NS(=O)(=O)Cc1noc2ccccc12` [zonisamide, 1,2-benzisoxazole-3-methanesulfonamide], for which the “interictal spikes and secondarily generalized seizures” value in [5] was “suppressed both interictal spikes and the secondarily generalized seizures”; in data set [16] it was “suppressed both interictal spikes and the secondarily generalized seizures”. Moreover, the “neuronal or glial uptake of [3H]-GABA” value in data set [6] was “without affecting”. The symptoms of patients entry in data set [7] is reported as “showed lessening of symptoms”. Also, in data set [8], the “effect on voltage-gated sodium channels” value was “blocks voltage-gated sodium channels”. In addition, the “duration of cortical focal seizures” value in [9] is listed as “reduction in the duration of cortical focal seizures”. For the same molecule, the “oral dose effective in anticonvulsant models” value in [10] is given as 20 mg/kg. Besides, the “dopaminergic and serotonergic neurotransmission” value in data set [11] was “facilitates both dopaminergic and serotonergic neurotransmission”. Besides, the “postsynaptic GABA or glutamate responses” value in data set [12] is on record as “without affecting”. Also, the synaptically-driven electrical activity in data set [12] is listed as “suppresses synaptically-driven electrical activity”. In addition, in data set [13], the “tremor developed after administration” value is “two patients developed resting and postural hand tremor”. Besides, in data set [14], the “effect on voltage-dependent, transient inward calcium currents” value is recorded as “reduces voltage-dependent, transient inward calcium currents”. In addition, the patients responding result in data set [15] (Parkinsonian tremor) was “two out of four responded”; in [15] (mixed tremor (non-essential, secondary to trauma or multiple sclerosis)) it was “two out of two patients responded”; in data set [15] (multi-infarct-related (2 or more minor strokes) tremor), “one out of two patients responded”. Besides, the quality of life entry in data set [15] (intractable essential tremor responders, 100 mg to 200 mg once daily) was “reported a better quality of life”. Moreover, the “patients responding by reduction in tremor” value in [15] (intractable essential tremor, 10 patients intolerant to or failed on primidone or propranolol, 100 mg to 200 mg once daily, at least 12 weeks) is “four patients responded by reduction in tremor of greater than 50%”. Moreover, the “adverse reactions experienced in treatment” value in data set [15] (setting [20]) is “GI upset, somnolence and skin rash”. The “kidney stones and anhydrosis (lack of sweating)” value in data set [15] (setting [20]) is reported as “not encountered”. The “threshold for generalized seizures” value in [17] is reported as “increase in threshold for generalized seizures”. In addition, in data set [18], the “symptoms of cortical myoclonic tremor” value is “improved”. For the same molecule, the “binding to GABA/benzodiazepine receptor ionophore complex” value in data set [19] is given as “binds to the GABA/benzodiazepine receptor ionophore complex in an allosteric fashion”.

These data come from US7273884B2, “Method of treating tremors” (Eisai, Inc., priority 2002, dated 2007).
